According to US9234004B2, “Antimicrobial peptides” (Agency for Science, Technology and Research, priority 2010, dated 2016):
In brackets after ≈: the same amount, converted by molar mass. Like-named read-outs stand apart in the source and are kept apart here. Bridge positions count the residues as written; N and C are the ends. Ends that are not written are not given here. Peptide text beside a SMILES is read from it. I, II: the chains in the order shown.

Assays:
Assay type in all cases: cell-based
[1] = test system: B. subtilis (ATCC No. 23857); settings: ATCC No. 23857, 18 h
Experimental: (§1) Microbes were re-constituted from their dried pellets obtained from ATCC according to the recommended protocols. Bacterial culture was done in tryptic soy broth at 37° C., while yeast was cultured in yeast mould broth at room temperature, under constant shaking at 100 rpm. Briefly, microbial suspension was first adjusted to contain ˜3×10^8 CFU/mL, by adjusting its 600 nm absorbance to be equivalent to that of the standard McFarland 1 reference. The suspension was then diluted to contain ˜3×10^6 CFU/mL. Under this condition, the O.D. reading was approximately 0.05-0.06 for bacterial cultures, and 0.03-0.04 for yeast cultures. Equal volume (100 μL) of the microbial suspension and the peptide solutions was mixed in a 96-well plate, and the microbial growth was monitored by measuring the O.D. reading at 0 and 18 hours.

[2] = test system: C. albicans (ATCC No. 10231); settings: ATCC No. 10231, 18 h
Experimental: as §1

[3] = test system: E. aerogenes (ATCC No. 13048); settings: ATCC No. 13048, 18 h
Experimental: as §1

E. coli (ATCC No. 25922) = settings: ATCC No. 25922, 18 h
Experimental: as §1

[4] = test system: P. aeruginosa (ATCC No. 9027); settings: ATCC No. 9027, 18 h
Experimental: as §1

[5] = test system: S. aureus (ATCC No. 29737); settings: ATCC No. 29737, 18 h
Experimental: as §1

[6] = test system: human red blood cells (hRBC)
Experimental: The peptides' hemolysis was tested in human red blood cells (hRBC). hRBCs were diluted 25× to achieve 4% concentration (v %) in phosphate-buffered saline (PBS, pH 7.4). Upon dilution, the blood suspension was treated with equal volume of (LLKK)4 (SEQ ID NO: 8), [(LLKK)2]2, or [(LLKK)2]4 peptide solution in PBS to reach final peptide concentrations of 0-500 mg/L. The treatment was performed inside a 37° C. incubator for 1 hour, after which the mixture was centrifuged at 1000 g for 5 mins to remove the non-hemolysed blood cells. The supernatant (100 μL) was transferred into a 96-well plate, and measured spectrophotometrically for its absorbance at 567 nm using a microplate reader (TECAN, Switzerland)^[5]. PBS and 0.1% Triton-X were used as negative and positive controls respectively. Hemolysis level was calculated according to the following formula: % Hemolytic=(Absorbance for Peptide treatment−Absorbance for PBS treatment)/(Absorbance for Triton treatment−Absorbance for PBS treatment)×100% Minimum Inhibitory Concentration (MIC)

E. coli [7] = settings: 2
Experimental: (§2) E. coli and S. aureus were treated at MIC and 2×MIC concentrations with [(LLKK)2]4 peptide. At various time periods (0, 0.5, 1, 2, 5, 8 and 18 hours), microbial suspensions were diluted at 3 different dilutions and plated on 1.5% LB agar plates. Microbial colonies were formed and counted after 24 hours of incubation (for bacteria) or 48 hours of incubation (for yeast).

S. aureus = settings: 2
Experimental: as §2

B. subtilis = settings: 8 h
Experimental: (§3) Microbial cells were firstly re-constituted from its lyophilized form according to the manufacturer's protocol. Bacterial cells were cultured in tryptic soy broth (TSB) at 37° C., and yeast cells were cultured in yeast mould broth (YMB) at room temperature under constant shaking at 100 rpm. Broth containing an antimicrobial peptide was prepared at various concentrations (0.98, 1.95, 3.90, 7.81, 15.63, 31.25, 62.5, 125, 250, 500 mg/L) and transferred into a 96-well tissue culture plate (100 μL/well). Microorganism was first inoculated overnight to enter its log growth-phase. An equal volume of microorganism solution (100 μL) was added into each well of the 96-well plate containing the antimicrobial peptide. Prior to this mixing, the concentration of microorganism solution was adjusted to give an initial optical density (O.D.) reading of 0.1-0.2 at 600 nm wavelength. The growth of the microorganism was observed upon introducing the antimicrobial peptide by measuring the O.D. readings at 2 hour intervals for up to 8 hours. […] Broth containing microbial cells was used as the negative control, and each test was carried out in 6 replicates. The standard deviations of the 6 readings were reported as the error bars.

C. albicans = settings: 8 h
Experimental: as §3

E. coli [8] = settings: 8 h
Experimental: as §3

rat red blood cells = assay: Hemolytic activity test
Experimental: Peptides were obtained from GL Biochem (Shanghai, China), and their fidelity was further confirmed via matrix-assisted laser desorption/ionization time-of-flight mass spectroscopy (MALDI-TOF MS, Model Autoflex II, Bruker Daltonics Inc., U.S.A.), using α-cyano-4-hydroxycinnamic acid as matrix. The purity of the peptides was also tested to be more than 95% with analytical reverse phase (RP)-HPLC. α-Cyano-4-hydroxycinnamic acid (HCCA) was purchased from Sigma-Aldrich (Singapore) and used in saturated acetonitrile/water (1:1 volume ratio) after being re-crystallized. Sodium dodecyl sulphate (SDS) micelle solution (10% w/v in DI water) was obtained from 1st Base (Malaysia) and used upon dilution to the desirable concentration range. Tryptic soy broth (TSB) powder and yeast mould broth (YMB) powder were purchased from BD Diagnostics (Singapore) and used to prepare the microbial broths according to the manufacturer's instructions. Phosphate-buffered saline solution at 10× concentration was purchased from 1st Base (Malaysia) and used after dilution to the desired concentration. Ethanol (analytical grade, 99%) and glutaraldehyde (synthetic grade, 50% in H2O) were purchased from Sigma Aldrich (Singapore) and used as received. […] Red blood cells used in the experiments were obtained from rats maintained at the Animal Handling Units of the Biomedical Research Centers (Singapore). Human peripheral blood mononuclear cells (PBMCs) were extracted from healthy blood donors and maintained with RPMI medium supplemented with 10% lowendotoxin fetal bovine serum (FBS) and 1% penicillin-streptomycin. Granulocyte macrophage-colony stimulating factor (GM-CSF) and lipopolysaccharide were purchased from Sigma-Aldrich and used as received.
Fresh red blood cells were washed with PBS for three times, and were subjected to 25 times dilution with PBS to reach a concentration of approximately 4% (in volume) of the blood cells. The red blood cell suspension (100 μL) was placed into a 96-well cell culture plate and mixed with 100 μL of the antimicrobial peptide solution in PBS at concentrations of 0.98, 1.95, 3.90, 7.81, 15.63, 31.25, 62.5, 125, 250, 500 mg/L. The mixture was then incubated at 37° C. for 1 hour to allow for the hemolysis process to take place. At the end of incubation time, the non-hemolysed red blood cells were separated by centrifugation at 13000 g for 5 minutes. Aliquots (100 μL) of the supernatant were transferred into a new 96-well plate, and the hemoglobin release was measured by checking the UV-absorbance of the samples at 576 nm using a microplate reader (TECAN, Switzerland). Two controls were provided in this assay: an untreated red blood cell suspension in PBS was used as the negative control, and a solution containing red blood cells lysed with 0.1% Triton-X was used as the positive control. Each assay was performed in 6 replicates, and the data were expressed as means and standard deviations of the 6 replicates. Percentage of hemolysis was calculated using the following formula: Hemolysis (%)=[(O.D.576 nm of the treated sample−O.D.576 nm of the negative control)/(O.D.576 nm of positive control−O.D.576 nm of negative control)]×100%. Field Emission-Scanning Electron Microscopy (FE-SEM) Analysis of Bacterial Cells

Compound	MIC B. subtilis [1]	MIC C. albicans [2]	MIC E. aerogenes [3]	MIC E. coli (E. coli (ATCC No. 25922))	MIC P. aeruginosa [4]	MIC S. aureus [5]	hemolysis at 500 mg/L ([6]; red cells of human, 500)	HC50 ([6]; red cells of human, 1 h)	hemolytic activity towards human red blood cells, in words [6]	cells killed after 1 hour (E. coli [7]; 1 h)	cells killed after 8 hours (E. coli [7]; 8 h)	cells killed after 1 hour (S. aureus; 1 h)	cells killed after 8 hours (S. aureus; 8 h)	MIC B. subtilis (B. subtilis)	MIC C. albicans (C. albicans)	MIC E. coli (E. coli [8])	hemolysis at the MIC against B. subtilis (rat red blood cells)	HC50 (50% hemolytic concentration) (rat red blood cells; red cells of rat, 1 h)	HC50 [6]
CC(C)C[C@H](NC(=O)[C@H](CC(C)C)NC(=O)[C@H](CCCCN)NC(=O)[C@H](CCCCN)NC(=O)[C@H](CC(C)C)NC(=O)[C@@H](N)CC(C)C)C(=O)N[C@@H](CCCCN)C(=O)N[C@@H](CCCCN)C(=O)NCCCC[C@H](NC(=O)[C@H](CCCCN)NC(=O)[C@H](CCCCN)NC(=O)[C@H](CC(C)C)NC(=O)[C@H](CC(C)C)NC(=O)[C@H](CCCCN)NC(=O)[C@H](CCCCN)NC(=O)[C@H](CC(C)C)NC(=O)[C@@H](N)CC(C)C)C(=O)N[C@@H](CS)C(N)=O [[(LLKK)2]2, [LLKKLLKK]2K*C—CONH2] (I: H-LLKKLLKKKC-NH2 / II: H-LLKKLLKK; amide I:9-II:C)	8 µg/mL (≈ 3.67 µM)	63 µg/mL (≈ 28.9 µM)	125 µg/mL (≈ 57.4 µM)	31 µg/mL (≈ 14.2 µM)	8 µg/mL (≈ 3.67 µM)	>500 µg/mL	~18%	>500 mg/L	–	–	–	–	–	–	–	–	–	–	–
CC(C)C[C@H](NC(=O)[C@H](CC(C)C)NC(=O)[C@H](CCCCN)NC(=O)[C@H](CCCCN)NC(=O)[C@H](CC(C)C)NC(=O)[C@@H](N)CC(C)C)C(=O)N[C@@H](CCCCN)C(=O)N[C@@H](CCCCN)C(=O)NCCCC[C@H](NC(=O)[C@H](CCCCN)NC(=O)[C@H](CCCCN)NC(=O)[C@H](CC(C)C)NC(=O)[C@H](CC(C)C)NC(=O)[C@H](CCCCN)NC(=O)[C@H](CCCCN)NC(=O)[C@H](CC(C)C)NC(=O)[C@@H](N)CC(C)C)C(=O)N[C@@H](CSSC[C@H](NC(=O)[C@H](CCCCNC(=O)[C@H](CCCCN)NC(=O)[C@H](CCCCN)NC(=O)[C@H](CC(C)C)NC(=O)[C@H](CC(C)C)NC(=O)[C@H](CCCCN)NC(=O)[C@H](CCCCN)NC(=O)[C@H](CC(C)C)NC(=O)[C@@H](N)CC(C)C)NC(=O)[C@H](CCCCN)NC(=O)[C@H](CCCCN)NC(=O)[C@H](CC(C)C)NC(=O)[C@H](CC(C)C)NC(=O)[C@H](CCCCN)NC(=O)[C@H](CCCCN)NC(=O)[C@H](CC(C)C)NC(=O)[C@@H](N)CC(C)C)C(N)=O)C(N)=O [[(LLKK)2]4, [LLKKLLKK]2K*C—S—S—CK*[KKLLKKLL]2] (I: H-LLKKLLKKKC-NH2 / II: H-LLKKLLKKKC-NH2 / III: H-LLKKLLKK / IV: H-LLKKLLKK; amide I:9-III:C, II:9-IV:C; disulfide I:10-II:10)	16 µg/mL (≈ 3.67 µM)	125 µg/mL (≈ 28.7 µM)	63 µg/mL (≈ 14.5 µM)	–	8 µg/mL (≈ 1.84 µM)	400 µg/mL (≈ 91.8 µM)	–	>500 mg/L	only hemolytic at an acceptable level	more than 50%	more than 99.99%	more than 50%	more than 99.99%	–	–	–	–	–	–
LLKKLLKKLLKKLLKK-NH2 [(LLKK)4, LLKKLLKKLLKKLLKK-NH2]	6.3 µg/mL	>50 µg/mL	25 µg/mL	12.5 µg/mL	6.3 µg/mL	>50 µg/mL	–	–	significant hemolysis at concentrations around its MICs	–	–	–	–	10 µg/mL	>50 µg/mL	>50 µg/mL	~30%	~24 mg/L	~37.5 mg/L
